The text below walks through data of ChEMBL document CHEMBL1201862, “PubChem BioAssay data set” (2004).

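How tested: cells in 96-well plates exposed to compound for 48 hours at five concentrations. The concentration for 50% growth inhibition is given as GI50.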 Calls of active or inactive are those of the source. Cut-off read from the data, not from the text of the source: active = GI50 up to about 1.1 µM and inactive = higher.

Experiment in all cases: growth of human tumour cells (NCI), 48 h
The subject of assay [1] is 786-0.
Assay [2] relates to A498.
Assay [3] concerns HCT-116.
The test system of assay [4] is HOP-92.
Assay [5] concerns KM12.
Assay [6] relates to M14.
Assay [7] deals with NCI-H460.
The test system of assay [8] is NCI/ADR-RES.
The test system of assay [9] is OVCAR-5.
The subject of assay [10] is RPMI-8226.
Assay [11] relates to RXF 393.
The test system of assay [12] is SR.
The subject of assay [13] is SW-620.
In assay [14] the test system is OVCAR-3.
For assay [15], the system named is TK-10.
The test system of assay [16] is UO-31.
Assay [17] concerns BT-549.

Regarding `CCOC(=O)c1c(SCc2ccccc2)nc2c3ccccc3ccn12`, the GI50 in [1] is > 100 µM (inactive); in assay [2], 54.5 µM (inactive); in assay [3], > 100 µM (inactive); in assay [4], 1.72 µM (inactive); in assay [5] it was > 100 µM (inactive); in [6] it was > 100 µM (inactive). In addition, the GI50 in assay [7] is 55.6 µM (inactive); in assay [8], > 100 µM (inactive); in assay [9] it was > 100 µM (inactive); in assay [10], > 100 µM (inactive); in assay [11], 70.6 µM (inactive); in assay [12], 47 µM (inactive). For the same molecule, the GI50 in [13] is > 100 µM (inactive).
Consider `OC(c1nc2ccccc2s1)(C(F)(F)F)C(F)(F)F`, for which the GI50 in [1], in assay [2], in [3], in [5], in assay [6] and in [7] was > 100 µM (inactive) each time. Further, the GI50 in assay [8], in assay [14], in assay [9], in assay [10], in [11] and in assay [13] was > 100 µM (inactive) each time. The results for the GI50 in [15] and in [16] were > 100 µM (inactive) and 87.1 µM (inactive), respectively.
Take `C1CSCC2(COC2)CS1`: the GI50 in [2], in [3], in assay [4], in assay [5], in [7] and in assay [8] was > 100 µM (inactive) each time. Further, the GI50 in assay [11], in assay [12], in assay [13], in assay [15] and in assay [16] was > 100 µM (inactive) in each case.
Consider `CCOC(=O)NC(C(F)(F)F)(C(F)(F)F)P(=O)(OC(C)C)OC(C)C`, for which the GI50 in assay [1], in assay [17], in [3], in [5], in assay [7] and in assay [8] was > 100 µM (inactive) in each case. Further, the GI50 in assay [14], in assay [9], in assay [10], in [11], in assay [12] and in [13] was > 100 µM (inactive) each time. Further, the GI50 in assay [15] and in [16] was > 100 µM (inactive) throughout.
Consider `CCC1(O)CC(CCN(Cc2ccccc2)C(=O)OCc2ccccc2)C(OCc2ccccc2)C1O` (configuration not stated), for which the GI50 in assay [1] was 17.2 µM (inactive); in [17], 13 µM (inactive); in assay [3] it was 17.5 µM (inactive); in [5], 12.7 µM (inactive); in [6], 15.5 µM (inactive); in assay [7], 13.4 µM (inactive). Also, the GI50 was 10.8 µM (inactive) in [8]; 13 µM (inactive) in assay [14]; 17.7 µM (inactive) in [9]; 16.3 µM (inactive) in assay [11]; 12.2 µM (inactive) in assay [12]; 36.1 µM (inactive) in [13]. The GI50 in [15] was 16.5 µM (inactive); in assay [16], 16.2 µM (inactive).
With `CS(=O)(=O)c1nc(-c2cc3c(c(S(C)(=O)=O)n2)CCC3)cc2c1CCCCC2`, the GI50 in assay [1] is 70.8 µM (inactive); in assay [17], 20.5 µM (inactive); in [3], > 100 µM (inactive); in [5], > 100 µM (inactive); in [6], > 100 µM (inactive); in [8], 49.5 µM (inactive). Moreover, the GI50 was > 100 µM (inactive) in assay [14]; > 100 µM (inactive) in assay [9]; > 100 µM (inactive) in [10]; 18.5 µM (inactive) in assay [11]; > 100 µM (inactive) in [13]; 42.7 µM (inactive) in assay [15]. Moreover, the GI50 in assay [16] is 0.834 µM (active).
On to `CN(C)CCN1C(=O)c2ccccc2C1(O)c1ccc(Cl)cc1` (configuration not stated), for which the GI50 in assay [1] is > 100 µM (inactive); in assay [17], > 100 µM (inactive); in assay [3] it was 63.5 µM (inactive); in assay [5] it was 69.5 µM (inactive); in assay [6] it was 42.9 µM (inactive); in [7] it was 93.1 µM (inactive). For the same molecule, the GI50 was 97.1 µM (inactive) in [8]; > 100 µM (inactive) in assay [14]; > 100 µM (inactive) in [9]; > 100 µM (inactive) in assay [10]; 15.7 µM (inactive) in assay [11]; > 100 µM (inactive) in assay [13]. For the same molecule, the results for the GI50 in assay [15] and in [16] were > 100 µM (inactive) and 24.3 µM (inactive), respectively.
Consider `Cc1cccc(NC(=O)/C=C/c2ccccc2)c1C`, for which the GI50 in [1], in [2], in [17], in [3], in [5] and in assay [6] was > 100 µM (inactive) in each case. Besides, the GI50 in [7], in assay [14], in assay [9], in assay [10], in [12] and in assay [13] was > 100 µM (inactive) each time. For the same molecule, the GI50 in assay [15] was > 100 µM (inactive).
Consider `CN1N=C(c2ccncc2)OC1c1ccc(C(F)(F)F)cc1` (configuration not stated), for which the GI50 in [1] was 98.4 µM (inactive); in [2], > 100 µM (inactive); in assay [3], > 100 µM (inactive); in assay [5] it was > 100 µM (inactive); in [6], > 100 µM (inactive); in assay [7], > 100 µM (inactive). Also, the GI50 in [8], in [14], in [9], in [10], in assay [11] and in assay [13] was > 100 µM (inactive) throughout. The GI50 in assay [15] and in assay [16] was > 100 µM (inactive) throughout.
As for `CN1CN(c2ccccc2)C2(CCN(CCCCCCF)CC2)C1=O`, the GI50 was > 100 µM (inactive) in [1]; 3.41 µM (inactive) in assay [17]; 28.8 µM (inactive) in [3]; > 100 µM (inactive) in assay [5]; 73.5 µM (inactive) in [6]; 16.4 µM (inactive) in assay [8]. Besides, the GI50 in assay [14] was > 100 µM (inactive); in [9] it was 35 µM (inactive); in assay [10], > 100 µM (inactive); in assay [11] it was > 100 µM (inactive); in assay [12], > 100 µM (inactive); in assay [13], 53.8 µM (inactive). The figures for the GI50 in assay [15] and in assay [16] were 65.8 µM (inactive) and 26.7 µM (inactive), respectively.
As to `CCN(CC)c1ccc(C2SCC(=O)N2c2ccc(NC(=O)c3ccc(N4C(=O)CSC4c4ccc(N(CC)CC)cc4)cc3)cc2)cc1` (configuration not stated), the GI50 in [1] was > 100 µM (inactive); in assay [17], > 100 µM (inactive); in assay [3], > 100 µM (inactive); in assay [4] it was > 100 µM (inactive); in [5], 96.8 µM (inactive); in assay [6] it was > 100 µM (inactive). The GI50 in [7] was > 100 µM (inactive); in assay [8], > 100 µM (inactive); in assay [14], 71.4 µM (inactive); in assay [9], > 100 µM (inactive); in [11] it was > 100 µM (inactive); in assay [13], > 100 µM (inactive). Moreover, the GI50 in [15] and in assay [16] was > 100 µM (inactive) in each case.
As for `Oc1cccc(-c2ccc3c4c2O[C@H]2c5[nH]c6ccccc6c5C[C@@]5(O)[C@@H](C3)N(CC3CC3)CC[C@]425)c1`, the GI50 in [1] is 1.62 µM (inactive); in [17], 10 µM (inactive); in assay [3], 1.82 µM (inactive); in [4], 2.13 µM (inactive); in assay [5], 1.98 µM (inactive); in [6], 1.7 µM (inactive). Also, the GI50 is 2.11 µM (inactive) in assay [8]; 2 µM (inactive) in assay [14]; 1.96 µM (inactive) in assay [9]; 1.35 µM (inactive) in [11]; 1.88 µM (inactive) in [13]; 2.24 µM (inactive) in assay [15]. Also, the GI50 in [16] is 1.67 µM (inactive).
Take `CC(C(=O)O)c1ccc(-n2nnc3c(=O)[nH][nH]c(=O)c32)cc1` (configuration not stated): the GI50 in assay [17], in assay [3], in [5], in assay [6], in [7] and in [8] was > 100 µM (inactive) each time. Further, the GI50 in assay [14], in assay [9], in assay [10], in assay [12], in [15] and in assay [16] was > 100 µM (inactive) throughout.
`Nc1c(C(=O)c2ccccc2)nnc2ccccc12`: the GI50 is 30.5 µM (inactive) in [1]; 18.7 µM (inactive) in [17]; 24.6 µM (inactive) in assay [3]; 18.8 µM (inactive) in assay [4]; 20.4 µM (inactive) in assay [5]; 39.3 µM (inactive) in assay [6]. Further, the GI50 is 24 µM (inactive) in assay [7]; 21.5 µM (inactive) in [8]; 36.5 µM (inactive) in [9]; 33.7 µM (inactive) in assay [10]; 38.4 µM (inactive) in assay [12]; 41.2 µM (inactive) in assay [13]. The GI50 is 24.3 µM (inactive) in [15] and 24.7 µM (inactive) in [16].
